Experiments:
[1] = Cytotoxicity against human THLE3 cells assessed as reduction in cell viability after 48 hrs by alamar blue assay; assay type: toxicity, cell-based
HSP60/HSP10 [2] = molecular target: T1, HSP60/HSP10 (Homo sapiens, UniProt P10809); assay: Inhibition of human mitochondrial HSP60/HSP10 expressed in Escherichia coli DH5alpha/BL21 (DE3) assessed as inhibition of denatured MDH refolding preincubated for 10 mins followed by ATP addition measured after 40 to 60 mins by fluorescence based assay
[3] = system: Trypanosoma brucei brucei; assay: Antitrypanosomal activity against Trypanosoma brucei brucei Lister 427 VSG 221 [TetR T7RNAP] transgenic bloodstream forms assessed as reduction in cell viability after 48 hrs by alamar blue assay; assay type: functional; conditions: Lister 427 VSG 221, 48 h
E. coli GroEL/ES [4] = molecular target: T2, E. coli GroEL/ES (Escherichia coli, UniProt P0A6F5); assay: Inhibition of Escherichia coli GroEL/GroES-ATPase activity expressed in Escherichia coli DH5alpha/BL21 (DE3) assessed as inhibition of denatured MDH refolding preincubated for 10 mins followed by ATP addition measured after 20 to 40 mins by malachite green dye based fluorescence assay
[5] = Inhibition of pig heart native MDH reporter reaction after 20 to 40 mins by fluorescence based assay; design: species or system Sus scrofa
HSP60/HSP10 [6] = molecular target: T1, HSP60/HSP10; assay: Inhibition of human mitochondrial HSP60/HSP10-ATPase activity expressed in Escherichia coli DH5alpha/BL21 (DE3) assessed as inhibition of denatured MDH refolding preincubated for 10 mins followed by ATP addition measured after 40 to 60 mins by malachite green dye based fluorescence assay
E. coli GroEL/ES [7] = molecular target: T2, E. coli GroEL/ES; assay: Inhibition of Escherichia coli GroEL/GroES expressed in Escherichia coli DH5alpha/BL21 (DE3) assessed as inhibition of denatured MDH refolding preincubated for 10 mins followed by ATP addition measured after 20 to 40 mins by fluorescence based assay
[8] = Cytotoxicity against HEK293 cells assessed as reduction in cell viability after 48 hrs by alamar blue assay; assay type: toxicity, cell-based; conditions: human

T2 sequence (P0A6F5 whole entry, looked up): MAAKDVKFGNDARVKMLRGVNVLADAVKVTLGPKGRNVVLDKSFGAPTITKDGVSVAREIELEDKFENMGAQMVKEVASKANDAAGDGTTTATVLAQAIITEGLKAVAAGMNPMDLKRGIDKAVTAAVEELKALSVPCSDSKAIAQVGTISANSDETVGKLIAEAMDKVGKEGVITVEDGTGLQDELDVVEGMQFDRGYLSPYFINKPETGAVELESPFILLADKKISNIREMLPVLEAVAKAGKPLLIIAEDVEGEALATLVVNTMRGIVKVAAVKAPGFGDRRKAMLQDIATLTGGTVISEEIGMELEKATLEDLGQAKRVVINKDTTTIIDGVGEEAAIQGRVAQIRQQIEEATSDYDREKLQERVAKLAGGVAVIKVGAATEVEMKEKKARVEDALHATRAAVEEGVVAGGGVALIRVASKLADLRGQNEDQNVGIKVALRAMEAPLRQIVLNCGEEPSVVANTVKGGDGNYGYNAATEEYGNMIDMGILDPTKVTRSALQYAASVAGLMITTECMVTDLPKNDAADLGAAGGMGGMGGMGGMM
T1 sequence (P10809 whole entry): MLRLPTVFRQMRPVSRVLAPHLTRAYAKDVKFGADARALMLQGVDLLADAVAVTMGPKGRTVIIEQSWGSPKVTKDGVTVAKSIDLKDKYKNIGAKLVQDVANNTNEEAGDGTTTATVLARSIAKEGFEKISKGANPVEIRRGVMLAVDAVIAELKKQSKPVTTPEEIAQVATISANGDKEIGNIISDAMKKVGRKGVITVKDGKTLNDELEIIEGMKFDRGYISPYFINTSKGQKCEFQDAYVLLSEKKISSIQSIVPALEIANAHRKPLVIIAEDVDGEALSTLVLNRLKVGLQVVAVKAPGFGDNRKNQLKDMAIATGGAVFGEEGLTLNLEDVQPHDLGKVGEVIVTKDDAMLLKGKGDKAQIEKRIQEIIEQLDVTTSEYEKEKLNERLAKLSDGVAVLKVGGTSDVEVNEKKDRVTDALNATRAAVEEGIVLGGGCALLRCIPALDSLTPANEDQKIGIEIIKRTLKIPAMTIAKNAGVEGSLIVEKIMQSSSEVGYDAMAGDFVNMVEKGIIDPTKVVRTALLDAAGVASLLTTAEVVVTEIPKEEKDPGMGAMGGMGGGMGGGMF
T1 sequence (P61604 whole entry, further chain): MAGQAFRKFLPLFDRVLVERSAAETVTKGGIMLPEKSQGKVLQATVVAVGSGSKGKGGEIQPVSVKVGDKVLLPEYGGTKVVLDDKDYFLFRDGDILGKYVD

SMILES | EC50 at 48 h [1] | IC50 (HSP60/HSP10 [2]) | EC50 [3] | IC50 (E. coli GroEL/ES [4]) | IC50 [5] | IC50 (HSP60/HSP10 [6]) | IC50 (E. coli GroEL/ES [7]) | EC50 at 48 h [8]
N#Cc1ccc(S(=O)(=O)Nc2ccc(-c3nc4cc(NS(=O)(=O)c5ccc(C#N)cc5)ccc4o3)cc2)cc1 | 79 µM | 64 µM | 16 µM | > 250 µM | > 63 µM | > 250 µM | 37 µM | 45 µM
N#Cc1ccccc1S(=O)(=O)Nc1ccc(-c2nc3cc(NS(=O)(=O)c4ccccc4C#N)ccc3o2)cc1 | 93 µM | 86 µM | 23 µM | > 250 µM | > 63 µM | 193 µM | 32 µM | 74 µM
O=[N+]([O-])c1cccc(S(=O)(=O)Nc2ccc(-c3nc4cc(NS(=O)(=O)c5cccc([N+](=O)[O-])c5)ccc4o3)cc2)c1 | 37 µM | 60 µM | 11 µM | > 250 µM | > 63 µM | > 250 µM | 11 µM | 46 µM
COC(=O)c1cccc(S(=O)(=O)Nc2ccc(-c3nc4cc(NS(=O)(=O)c5cccc(C(=O)OC)c5)ccc4o3)cc2)c1 | 49 µM | 95 µM | > 42 µM | > 250 µM | > 63 µM | > 250 µM | 11 µM | > 100 µM
N#Cc1cccc(S(=O)(=O)Nc2ccc(-c3nc4cc(NS(=O)(=O)c5cccc(C#N)c5)ccc4o3)cc2)c1 | 91 µM | 91 µM | 39 µM | 4.1 µM | > 63 µM | > 250 µM | 7.6 µM | 45 µM
O=S(=O)(Nc1ccc(-c2nc3cc(NS(=O)(=O)c4cccc(O)c4)ccc3o2)cc1)c1cccc(O)c1 | 37 µM | 19 µM | 8.9 µM | 0.79 µM | 47 µM | 61 µM | 0.9 µM | 36 µM
Nc1ccc(S(=O)(=O)Nc2ccc(-c3nc4cc(NS(=O)(=O)c5ccc(N)cc5)ccc4o3)cc2)cc1 | 38 µM | 68 µM | 22 µM | 1.7 µM | > 63 µM | 224 µM | 1.4 µM | 59 µM
Nc1ccccc1S(=O)(=O)Nc1ccc(-c2nc3cc(NS(=O)(=O)c4ccccc4N)ccc3o2)cc1 | 18 µM | > 100 µM | 3.3 µM | > 250 µM | > 63 µM | > 250 µM | 10 µM | 14 µM
O=[N+]([O-])c1ccc(S(=O)(=O)Nc2ccc(-c3nc4cc(NS(=O)(=O)c5ccc([N+](=O)[O-])cc5)ccc4o3)cc2)cc1 | 36 µM | 65 µM | 15 µM | > 250 µM | > 63 µM | > 250 µM | 26 µM | 59 µM
COC(=O)c1ccccc1S(=O)(=O)Nc1ccc(-c2nc3cc(NS(=O)(=O)c4ccccc4C(=O)OC)ccc3o2)cc1 | > 100 µM | > 100 µM | 28 µM | 53 µM | > 63 µM | > 250 µM | 36 µM | > 100 µM
Nc1cccc(S(=O)(=O)Nc2ccc(-c3nc4cc(NS(=O)(=O)c5cccc(N)c5)ccc4o3)cc2)c1 | 30 µM | 87 µM | 15 µM | 9.6 µM | > 63 µM | 127 µM | 2.8 µM | 58 µM
O=[N+]([O-])c1ccccc1S(=O)(=O)Nc1ccc(-c2nc3cc(NS(=O)(=O)c4ccccc4[N+](=O)[O-])ccc3o2)cc1 | 93 µM | 75 µM | > 42 µM | 3.1 µM | > 63 µM | 194 µM | 3.6 µM | 60 µM
O=S(=O)(Nc1ccc(-c2nc3cc(NS(=O)(=O)c4ccc(O)cc4)ccc3o2)cc1)c1ccc(O)cc1 | 41 µM | 11 µM | 21 µM | 0.31 µM | 50 µM | 59 µM | 0.34 µM | 38 µM

From ChEMBL document CHEMBL3856280, “Targeting the HSP60/10 chaperonin systems of Trypanosoma brucei as a strategy for treating African sleeping sickness” (Bioorg Med Chem Lett, 2016)
